Results on 14 compounds are retold here after patent publication US20240270762A1, “PENICILLIN-BINDING PROTEIN INHIBITORS” (priority 2021, published 2024).

Assay [1] deals with T1, PBP3 from Pseudomonas aeruginosa (PAO1) (Pseudomonas aeruginosa, UniProt G3XD46).
T1 construct: made in house
Briefly: Bocillin-FL fluorescence polarization competition binding, P. aeruginosa PBP3. As to conditions: Binding affinity to P. aeruginosa PBP3; fluorescence polarization competition binding assay using Bocillin-FL; read-out: P. aeruginosa PBP3 Potency. The gist of the method: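 Purified PBPs pre-incubated with inhibitor (E. coli PBP3 1.5 μM, 30 min; P. aeruginosa PBP3 0.75 μM, A. baumannii PBP1a 1 μM and PBP3 0.2 μM, 15 min), then Bocillin-FL 0.1 μM (0.05 μM for PBP1a) added; FP read up to 60 min. EC50 = concentration halving bound Bocillin-FL.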

Assay [2] concerns P. aeruginosa CDC-0090. Briefly: microbe, parasite or virus in culture. It counts as cell-based. As to conditions: Pseudomonas aeruginosa, CDC0090, read-out: Minimum inhibitory concentration, P. aeruginosa CDC-0090.
Assay [3] deals with A. baumannii ATCC 19606. The assay can be described thus: microbe, parasite or virus in culture. The class given is cell-based. The conditions noted are these: Acinetobacter baumannii.
The target of assay [4] is T2, A. baumannii PBP1a (Acinetobacter baumannii, UniProt A0ABX6CK30).
T2 sequence (A0ABX6CK30 1-851): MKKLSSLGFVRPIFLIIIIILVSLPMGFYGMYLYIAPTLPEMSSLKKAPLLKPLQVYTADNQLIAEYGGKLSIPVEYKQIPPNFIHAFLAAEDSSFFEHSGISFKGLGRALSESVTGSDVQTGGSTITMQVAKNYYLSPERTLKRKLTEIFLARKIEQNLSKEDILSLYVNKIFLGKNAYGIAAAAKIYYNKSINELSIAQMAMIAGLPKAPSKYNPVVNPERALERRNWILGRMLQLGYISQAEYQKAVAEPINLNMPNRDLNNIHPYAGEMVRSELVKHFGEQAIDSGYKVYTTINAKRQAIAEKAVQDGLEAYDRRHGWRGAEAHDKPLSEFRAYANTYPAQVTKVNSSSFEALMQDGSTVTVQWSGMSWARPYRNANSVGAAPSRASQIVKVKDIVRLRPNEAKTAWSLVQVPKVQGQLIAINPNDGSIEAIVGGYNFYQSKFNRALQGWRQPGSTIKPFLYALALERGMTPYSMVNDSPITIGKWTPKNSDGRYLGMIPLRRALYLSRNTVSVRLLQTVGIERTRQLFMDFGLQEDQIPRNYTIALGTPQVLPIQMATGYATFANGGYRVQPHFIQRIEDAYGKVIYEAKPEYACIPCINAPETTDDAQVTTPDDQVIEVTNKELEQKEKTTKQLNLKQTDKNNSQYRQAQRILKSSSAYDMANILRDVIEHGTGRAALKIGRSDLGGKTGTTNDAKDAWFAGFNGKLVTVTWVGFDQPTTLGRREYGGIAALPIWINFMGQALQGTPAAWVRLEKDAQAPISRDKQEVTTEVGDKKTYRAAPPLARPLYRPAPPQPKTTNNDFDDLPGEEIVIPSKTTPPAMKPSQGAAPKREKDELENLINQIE
The assay can be described thus: Bocillin-FL competition binding via gel filtration, A. baumannii PBP1a. The conditions noted are these: competition binding assay using Bocillin-FL via gel filtration; read-out: A. baumannii PBP1a Potency. The gist of the method: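 Enzyme pre-incubated with increasing inhibitor concentrations, then Bocillin-FL added for 15 min further incubation. Bocillin-FL-bound PBP separated by gel filtration and fluorescence read. EC50 from fitting fraction PBP bound vs inhibitor concentration to a Hill-type equation (ymin, ymax, n).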

[5] abbreviates: ATCC19606, read-out: MIC, A. baumannii ATCC 19606.
[6] abbreviates: ATCC19606, read-out: Minimum inhibitory concentration (MIC), A. baumannii ATCC 19606.

Converted amounts (≈) assume the structure as drawn. Read-outs that look alike come from different tables or passages of the source.

T1 sequence (G3XD46 whole entry): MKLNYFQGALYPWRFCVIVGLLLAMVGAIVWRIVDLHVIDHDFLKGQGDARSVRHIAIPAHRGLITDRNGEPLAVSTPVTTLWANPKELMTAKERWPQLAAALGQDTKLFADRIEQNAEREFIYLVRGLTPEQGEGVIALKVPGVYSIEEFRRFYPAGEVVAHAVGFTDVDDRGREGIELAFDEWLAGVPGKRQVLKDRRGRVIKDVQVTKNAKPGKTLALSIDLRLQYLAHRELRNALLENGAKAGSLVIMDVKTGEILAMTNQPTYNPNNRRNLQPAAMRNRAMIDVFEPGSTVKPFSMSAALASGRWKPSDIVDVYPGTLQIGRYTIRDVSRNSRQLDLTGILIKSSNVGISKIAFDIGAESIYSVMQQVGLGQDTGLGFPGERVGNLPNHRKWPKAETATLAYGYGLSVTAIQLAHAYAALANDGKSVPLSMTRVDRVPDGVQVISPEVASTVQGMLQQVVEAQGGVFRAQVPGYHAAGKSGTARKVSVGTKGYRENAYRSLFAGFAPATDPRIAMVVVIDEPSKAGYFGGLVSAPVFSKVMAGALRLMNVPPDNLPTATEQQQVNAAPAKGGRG

Consider `O=C(O)c1c(F)ccc2c1OB(O)[C@@H](NC(=O)[C@H](NC(=O)N1CCN(C3CCN(C(=O)Nc4cc(O)ccc4F)CC3)C1=O)c1cc(F)c(O)c(O)c1Cl)C2` (single isomer, unassigned) [Example 451], for which the IC50 in assay [1] is under 10 µM. Also, the MIC in assay [2] and in assay [3] (setting [5]) was under 1 µg/mL in each case. In assay [4], the EC50 was under 10 µM.

`O=C(O)c1cccc2c1OB(O)[C@@H](NC(=O)C(NC(=O)N1CCN(Cc3cc(F)c(O)c(O)c3Cl)C(=O)C1=O)c1ccc(P(=O)(O)O)cc1)C2` (stereo partly drawn) [Example 164, (3R)-3-(2-(4-(2-chloro-5-fluoro-3,4-dihydroxybenzyl)-2,3-dioxopiperazine-1-carboxamido)-2-(4-phosphonophenyl)acetamido)-2-hydroxy-3,4-dihydro-2H-benzo[e][1,2]oxaborinine-8-carboxylic acid]: in assay [1], the IC50 is under 10 µM. Moreover, the MIC in assay [2] and in assay [3] (setting [5]) was under 1 µg/mL in each case. In addition, in assay [4], the EC50 was under 10 µM.

Take `O=C(O)c1c(F)ccc2c1OB(O)[C@@H](NC(=O)[C@H](NC(=O)N1CCN(C3CCN(C(=O)c4cc(O)ccc4Cl)CC3)C1=O)c1cc(F)c(O)c(O)c1Cl)C2` (single isomer, unassigned) [Example 434]: in assay [1], the IC50 is under 10 µM. For the same compound, the MIC in assay [2] and in assay [3] (setting [5]) was under 1 µg/mL each time. In addition, the EC50 in assay [4] was under 10 µM.

In the case of `O=C(NCCS(=O)(=O)N1CCN(C(=O)N[C@H](C(=O)N[C@H]2Cc3ccc(F)c(C(=O)O)c3OB2O)c2ccc(P(=O)(O)O)cc2)C1=O)c1ccc(O)c(O)c1Cl` [Example 167, (R)-3-((S)-2-(3-((2-(2-chloro-3,4-dihydroxybenzamido)ethyl)sulfonyl)-2-oxoimidazolidine-1-carboxamido)-2-(4-phosphonophenyl)acetamido)-7-fluoro-2-hydroxy-3,4-dihydro-2H-benzo[e][1,2]oxaborinine-8-carboxylic acid], in assay [1], the IC50 was 50 to 250 µM. Besides, the MIC in assay [2] and in assay [3] (setting [5]) was over 128 µg/mL in each case. The EC50 in assay [4] is 50 to 250 µM.

As to `O=C(O)c1c(F)ccc2c1OB(O)[C@@H](NC(=O)[C@H](NC(=O)N1CCN(S(=O)(=O)c3ccc(O)c(O)c3Cl)C1=O)c1ccc(P(=O)(O)O)cc1)C2` [Example 506, (R)-3-((R)-2-(3-((2-chloro-3,4-dihydroxyphenyl)sulfonyl)-2-oxoimidazolidine-1-carboxamido)-2-(4-phosphonophenyl)acetamido)-7-fluoro-2-hydroxy-3,4-dihydro-2H-benzo[e][1,2]oxaborinine-8-carboxylic acid], the IC50 in assay [1] was under 10 µM. The MIC in assay [2] and in assay [3] (setting [6]) was under 1 µg/mL throughout.

Take `O=C(O)c1c(F)ccc2c1OB(O)[C@@H](NC(=O)[C@H](NC(=O)N1CCN(Cc3ccc(O)c(O)c3Cl)C(=O)C1=O)c1ccc(P(=O)(O)O)c(F)c1F)C2` [Example 166, (R)-3-((R)-2-(4-(2-chloro-3,4-dihydroxybenzyl)-2,3-dioxopiperazine-1-carboxamido)-2-(2,3-difluoro-4-phosphonophenyl)acetamido)-7-fluoro-2-hydroxy-3,4-dihydro-2H-benzo[e][1,2]oxaborinine-8-carboxylic acid]: the IC50 in assay [1] is under 10 µM. Besides, the results for the MIC in assay [2] and in assay [3] (setting [5]) were 2 to 4 µg/mL (≈ 2.59 to 5.19 µM) and under 1 µg/mL, respectively. The EC50 in assay [4] lay within 10 to 50 µM.

Consider `O=C(O)c1c(F)ccc2c1OB(O)[C@@H](NC(=O)C(NC(=O)N1CCN(C3CCN(C(=O)Nc4cc(O)c(F)c(F)c4)CC3)C(=O)C1=O)c1cc(F)c(O)c(O)c1Cl)C2` (stereo partly drawn) [Example 488, (3R)-3-(2-(2-chloro-5-fluoro-3,4-dihydroxyphenyl)-2-(4-(1-((3,4-difluoro-5-hydroxyphenyl)carbamoyl)piperidin-4-yl)-2,3-dioxopiperazine-1-carboxamido)acetamido)-7-fluoro-2-hydroxy-3,4-dihydro-2H-benzo[e][1,2]oxaborinine-8-carboxylic acid], for which, in assay [1], the IC50 is under 10 µM. In addition, the MIC in assay [2] and in assay [3] (setting [6]) was under 1 µg/mL in each case. In assay [4], the EC50 was under 10 µM.

On to `O=C(O)c1c(F)ccc2c1OB(O)[C@@H](NC(=O)C(NC(=O)N1CCN(C3CCN(C(=O)Nc4cc(O)cc(Cl)c4)CC3)C(=O)C1=O)c1cc(F)c(O)c(O)c1Cl)C2` (stereo partly drawn) [Example 484, (3R)-3-(2-(2-chloro-5-fluoro-3,4-dihydroxyphenyl)-2-(4-(1-((3-chloro-5-hydroxyphenyl)carbamoyl)piperidin-4-yl)-2,3-dioxopiperazine-1-carboxamido)acetamido)-7-fluoro-2-hydroxy-3,4-dihydro-2H-benzo[e][1,2]oxaborinine-8-carboxylic acid], for which the IC50 in assay [1] is under 10 µM. The MIC in assay [2] is 2 to 4 µg/mL (≈ 2.39 to 4.79 µM); in assay [3] (setting [5]), under 1 µg/mL. For the same compound, the EC50 in assay [4] is under 10 µM.

Turning to `O=C(O)c1c(F)ccc2c1OB(O)[C@@H](NC(=O)C(NC(=O)N1CCN(C3CCN(C(=O)Nc4ccc(F)c(O)c4F)CC3)C1=O)c1cc(F)c(O)c(O)c1Cl)C2` (stereo partly drawn) [Example 452, (3R)-3-(2-(2-chloro-5-fluoro-3,4-dihydroxyphenyl)-2-(3-(1-((2,4-difluoro-3-hydroxyphenyl)carbamoyl)piperidin-4-yl)-2-oxoimidazolidine-1-carboxamido)acetamido)-7-fluoro-2-hydroxy-3,4-dihydro-2H-benzo[e][1,2]oxaborinine-8-carboxylic acid], in assay [1], the IC50 is under 10 µM. Further, the MIC in assay [2] and in assay [3] (setting [5]) was under 1 µg/mL each time. In addition, the EC50 in assay [4] was 10 to 50 µM.

On to `O=C(O)c1c(F)ccc2c1OB(O)[C@@H](NC(=O)[C@H](NC(=O)N1CCN(C3CCN(C(=O)c4cc(O)cc(O)c4)CC3)C1=O)c1cc(F)c(O)c(O)c1Cl)C2` (single isomer, unassigned) [Example 442], for which the IC50 in assay [1] was under 10 µM. The MIC in assay [2] and in assay [3] (setting [5]) was under 1 µg/mL throughout. Further, in assay [4], the EC50 was under 10 µM.

On to `O=C(O)c1cccc2c1OB(O)[C@@H](NC(=O)[C@H](NC(=O)N1CCN(Cc3cc(F)c(O)c(O)c3Cl)C(=O)C1=O)c1ccc(P(=O)(O)O)cc1)C2` [Example 504, (R)-3-((R)-2-(4-(2-chloro-5-fluoro-3,4-dihydroxybenzyl)-2,3-dioxopiperazine-1-carboxamido)-2-(4-phosphonophenyl)acetamido)-2-hydroxy-3,4-dihydro-2H-benzo[e][1,2]oxaborinine-8-carboxylic acid], for which the MIC in assay [2] and in assay [3] (setting [6]) was under 1 µg/mL in each case. The EC50 in assay [4] is under 10 µM.

As for `O=C(O)c1c(F)ccc2c1OB(O)[C@@H](NC(=O)[C@@H](NC(=O)N1CCN(C3CCN(C(=O)c4ccc(O)cc4)CC3)C1=O)c1cc(F)c(O)c(O)c1Cl)C2` (single isomer, unassigned) [Example 462], the IC50 in assay [1] lay within 10 to 50 µM. Further, in assay [3] (setting [5]), the MIC was 8 to 16 µg/mL (≈ 10.6 to 21.1 µM). Besides, in assay [4], the EC50 is under 10 µM.

As to `O=C(NCCCS(=O)(=O)N1CCN(C(=O)N[C@H](C(=O)N[C@H]2Cc3ccc(F)c(C(=O)O)c3OB2O)c2ccc(P(=O)(O)O)cc2)C1=O)c1ccc(O)c(O)c1Cl` (single isomer, unassigned) [Example 169], the IC50 in assay [1] was over 250 µM. In addition, the MIC in assay [2] and in assay [3] (setting [5]) was over 128 µg/mL throughout.

As to `O=C(O)c1cccc2c1OB(O)[C@@H](NC(=O)[C@H](NC(=O)N1CCN(S(=O)(=O)c3ccc(O)c(O)c3Cl)C1=O)c1ccc(P(=O)(O)O)cc1)C2` [Example 509, (R)-3-((R)-2-(3-((2-chloro-3,4-dihydroxyphenyl)sulfonyl)-2-oxoimidazolidine-1-carboxamido)-2-(4-phosphonophenyl)acetamido)-2-hydroxy-3,4-dihydro-2H-benzo[e][1,2]oxaborinine-8-carboxylic acid], the IC50 in assay [1] was under 10 µM. Also, the MIC in assay [2] and in assay [3] (setting [6]) was under 1 µg/mL throughout.
